# Molecular target: T1, EHMT2 (Homo sapiens, UniProt Q96KQ7)
# T1 construct: host or cells: MDA-MB-231
# T1 sequence (Q96KQ7 1-1210): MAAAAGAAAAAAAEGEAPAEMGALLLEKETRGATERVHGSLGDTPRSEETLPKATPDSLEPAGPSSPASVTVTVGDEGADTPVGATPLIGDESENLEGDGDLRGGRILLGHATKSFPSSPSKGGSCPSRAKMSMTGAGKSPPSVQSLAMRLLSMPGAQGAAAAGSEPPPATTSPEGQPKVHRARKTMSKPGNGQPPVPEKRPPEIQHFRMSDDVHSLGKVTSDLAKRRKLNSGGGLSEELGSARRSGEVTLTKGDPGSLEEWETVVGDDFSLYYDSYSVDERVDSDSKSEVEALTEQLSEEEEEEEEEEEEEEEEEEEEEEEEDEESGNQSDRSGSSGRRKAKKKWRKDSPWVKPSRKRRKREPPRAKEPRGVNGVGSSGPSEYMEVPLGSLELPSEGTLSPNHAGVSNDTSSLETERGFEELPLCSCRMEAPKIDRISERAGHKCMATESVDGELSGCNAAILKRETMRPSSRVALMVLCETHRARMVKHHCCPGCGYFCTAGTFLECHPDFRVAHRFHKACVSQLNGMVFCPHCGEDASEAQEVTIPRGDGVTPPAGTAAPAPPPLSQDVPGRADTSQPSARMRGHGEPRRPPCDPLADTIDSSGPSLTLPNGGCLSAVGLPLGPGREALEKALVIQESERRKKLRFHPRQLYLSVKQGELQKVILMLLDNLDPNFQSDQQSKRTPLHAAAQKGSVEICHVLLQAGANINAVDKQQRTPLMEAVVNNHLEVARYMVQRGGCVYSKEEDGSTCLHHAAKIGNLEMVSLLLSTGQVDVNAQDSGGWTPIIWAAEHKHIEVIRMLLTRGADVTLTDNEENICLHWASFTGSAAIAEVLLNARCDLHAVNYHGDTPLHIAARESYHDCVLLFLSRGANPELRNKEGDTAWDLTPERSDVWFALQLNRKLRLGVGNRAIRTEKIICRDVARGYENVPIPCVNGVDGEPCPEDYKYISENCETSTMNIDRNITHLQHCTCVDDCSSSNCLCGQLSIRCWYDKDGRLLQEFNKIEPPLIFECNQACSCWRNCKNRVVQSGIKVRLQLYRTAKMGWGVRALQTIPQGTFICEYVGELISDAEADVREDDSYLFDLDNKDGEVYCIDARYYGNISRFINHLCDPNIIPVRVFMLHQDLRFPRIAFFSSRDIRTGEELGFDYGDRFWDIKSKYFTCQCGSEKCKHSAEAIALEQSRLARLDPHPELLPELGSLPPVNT
# Test: MDA-MB-231 H3K9me2 in-cell Western assay (EHMT2 ICW)
# Assay type: cell-based
# Conditions: H3K9me2 in-cell Western, MDA-MB-231 cells; read-out: EHMT2 ICW (IC50 μM)
# Summary of the method: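 Steps: compound added to plate, MDA-MB-231 cells plated in RPMI with 10% FBS, incubation for 48 h at 37 °C, fixation, overnight anti-H3K9me2 staining at 4 °C, and donkey anti-mouse 800CW with DRAQ5 counterstain. IC50 values come from percent inhibition fitted with a four-parameter model.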
row,SMILES,IC50 [µM]
1,CNc1cc(C)nc(Nc2ccc(OC)c(OCC3CN(C4CC4)C3)c2)n1 [Compound 510],0.1 to 1
2,CCc1ncc(Nc2nc(C)cc(NC)n2)cc1OCCCN1CCCC1 [Compound 515],1 to 10
3,CNc1cc(C)nc(Nc2cnc(C3CC3)c(OCCCN3CCCC3)c2)n1 [Compound 516],1 to 10
4,CNc1cc(C)nc(Nc2ccc(OC)c(OCC3CCCN(C4CC4)C3)c2)n1 (centres unmarked) [Compound 517a],0.1 to 1
5,CNc1cc(C)nc(Nc2ccc(OC)c(OC[C@H]3CCCN(C4CC4)C3)c2)n1 [Compound 517b],0.1 to 1
6,"CNc1nc(C2CCCC2)c2cc(OC)c(OCCCN3CCCC3)cc2n1 [Compound 518, 4-cyclopentyl-6-methoxy-N-methyl-7-(3-(pyrrolidin-1-yl)propoxy)quinazolin-2-amine]",1 to 10
7,CNc1nc(C2CCN(C(C)=O)CC2)c2cc(OC)c(OCCCN3CCCC3)cc2n1 [Compound 519],> 10
8,CNc1nc(C2CCOCC2)c2cc(OC)c(OCCCN3CCCC3)cc2n1 [Compound 521],1 to 10
9,CNc1nc(C2=CCOCC2)c2cc(OC)c(OCCCN3CCCC3)cc2n1 [Compound 522],1 to 10
10,"CNc1cc(C2CCOCC2)c2cc(OC)c(OCCCN3CCCC3)cc2n1 [Compound 524, 6-methoxy-N-methyl-4-(oxan-4-yl)-7-[3-(pyrrolidin-1-yl)propoxy]quinolin-2-amine]",< 0.1
11,COc1cc2c(C3CCN(C)CC3)nc(N3CCC(F)(F)CC3)nc2cc1OCCCN1CCCC1 [Compound 528],1 to 10
12,COc1cc2c(C3CCN(C)CC3)nc(NC3CCCC3)nc2cc1OCCCN1CCCC1 [Compound 529],0.1 to 1
13,CNc1nc(C2CCN(C(C)C)CC2)c2cc(OC)c(OCCCN3CCCC3)cc2n1 [Compound 530],1 to 10
14,CNc1nc(C2CCN(C)CC2)c2cc(OC)c(OCCCN3CC4CC4C3)cc2n1 (centres unmarked) [Compound 532],0.1 to 1
15,CNc1nc(C2CCN(CCO)CC2)c2cc(OC)c(OCCCN3CCCC3)cc2n1 [Compound 533],0.1 to 1
16,COc1cc2c(C3CCN(C)CC3)cc(C)nc2cc1OCCCN1CCCC1 [Compound 536],0.1 to 1

# Further lines, results first:
row,IC50 [µM],SMILES
1,< 0.1,CNc1cc(C)nc(Nc2cnc(OC)c(OC[C@@H]3CCN(C4CC4)C3)c2)n1 [Compound 512]
2,0.1 to 1,CNc1cc(C)nc(Nc2cnc(OC)c(OCCCN3CC4CC4C3)c2)n1 (centres unmarked) [Compound 514]
3,1 to 10,CNc1nc(C2CCNCC2)c2cc(OC)c(OCCCN3CCCC3)cc2n1 [Compound 520]
4,1 to 10,"CNc1nc(C2CCCCC2)c2cc(OC)c(OCCCN3CCCC3)cc2n1 [Compound 523, 4-cyclohexyl-6-methoxy-N-methyl-7-(3-(pyrrolidin-1-yl)propoxy)quinazolin-2-amine]"
5,0.1 to 1,CNc1nc(C2CCN(C(C)C)CC2)c2cc(OC)c(OC[C@@H]3CCN(C4CC4)C3)cc2n1 [Compound 526]
6,0.1 to 1,COc1cc2c(C3CCN(C)CC3)nc(N3CCCC3)nc2cc1OCCCN1CCCC1 [Compound 527]
7,> 10,CNc1nc(C2CC(C)(C)NC(C)(C)C2)c2cc(OC)c(OCCCN3CCCC3)cc2n1 [Compound 534]
8,< 0.1,CNc1cc(C2CCN(C)CC2)c2cc(OC)c(OCCCN3CCCC3)cc2n1 [Compound 535]
9,> 10,"CCCCNc1nccc(NC)n1 [Compound 543, N^2-butyl-N^4-methylpyrimidine-2,4-diamine]"

# Same assay, conditions: Table VII; read-out: EHMT2 ICW IC50
row,SMILES,IC50 [µM]
1,CNc1cc(C)nc(Nc2ccc(OC)c(OC[C@@H](O)CN3CCCC3)c2)n1 [Compound 1044],0.1 to 1
2,CNc1cc(C)nc(Nc2ccc(OC)c(OC[C@H](O)CN3CCCC3)c2)n1 [Compound 1045],0.1 to 1
3,CNc1ccnc(Nc2ccc(OC)c(OC[C@@H](O)CN3CCC3)c2)n1 [Compound 1046],1 to 10
4,CNc1cc(C2CCOCC2)c2cc(OC)c(OC[C@H](O)CN3CCC3)cc2n1 [Compound 1108],0.1 to 1
5,CNc1cc(C)nc(Nc2ccc(OC)c(CNCCNC3CCC3)c2)n1 [Compound 1109],1 to 10
6,CNc1cc(C2CCOCC2)c2cc(OC)c(CNCCN3CCCC3)cc2n1 [Compound 1111],0.1 to 1
7,CNc1cc(C)nc(Nc2ccc(OC)c(OC[C@H](O)CN(C)C)c2)n1 [Compound 1112],1 to 10
8,CCN(C)C[C@@H](O)COc1cc(Nc2nc(C)cc(NC)n2)ccc1OC [Compound 1113],1 to 10

# Now from value to molecule:
row,IC50 [µM],SMILES
1,0.1 to 1,CNc1cc(C)nc(Nc2cnc(OC)c(CNCCN3CCC3)c2)n1 [Compound 1110]
2,> 10,CNc1cc(C)nc(Nc2ccc(C)c(C(=O)NCc3ccon3)c2)n1 [Compound 1114]

# Source: patent publication US20210198277A1, “AMINE-SUBSTITUTED ARYL OR HETEROARYL COMPOUNDS” (Epizyme, Inc., priority 2016, published 2021)
